Test systems include U-251; TK-10; Malme-3M; 786-0; COLO 205; HCT-15; NCI-H23; ACHN; OVCAR-4; SK-MEL-5; SK-MEL-2; IGROV-1; OVCAR-5; OVCAR-3; UACC-257; SK-OV-3.
What all share (assay): inhibition of tumour cell growth, NCI panel, 48 h

The structures appear in SMILES notation.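 Tested at 5 concentrations; 48 h exposure; 96-well plates; endpoints linearly interpolated, else capped at highest concentration. Here, GI50 denotes the concentration required for 50% inhibition of growth.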 Activity calls are given as the source filed them. No stated cut-off is given here; in the data, active = GI50 up to about 1.1 µM and inactive = higher. Bounds are passed on as bounds.

As for `COC(=O)c1c(C(=O)OC)c2cc(C(=O)c3ccccc3)ccn2c1Cl`, the GI50 was 44.2 µM (inactive) in the assay on U-251; 67.1 µM (inactive) in the assay with TK-10; 52.7 µM (inactive) in the assay with Malme-3M; 44.6 µM (inactive) in the assay on 786-0; 35.8 µM (inactive) in the assay with COLO 205; 20.9 µM with HCT-15. For the same compound, the GI50 is 23.1 µM (inactive) in the assay on NCI-H23; 43.8 µM (inactive) with ACHN; 31.2 µM (inactive) in the assay on OVCAR-4; 16.2 µM (inactive) in the assay with SK-MEL-5; 48.4 µM (inactive) in the assay on SK-MEL-2; 53.1 µM (inactive) in the assay with IGROV-1. The GI50 is 48.4 µM (inactive) in the assay with OVCAR-5 and 21.6 µM (inactive) in the assay on OVCAR-3.

As to `Cc1nc2c(o1)/C(=N\c1ccccc1)c1ccccc1C2=O`, the GI50 with U-251 was 3.61 µM (inactive); in the assay on TK-10, 35.1 µM (inactive); with Malme-3M, 3.98 µM (inactive); with UACC-257, 5.97 µM (inactive); with 786-0, 15.2 µM (inactive); in the assay on COLO 205, 15.8 µM (inactive). The GI50 in the assay with HCT-15 was 8.11 µM; in the assay with NCI-H23, 1.9 µM (inactive); in the assay with ACHN it was 7.16 µM (inactive); in the assay on SK-MEL-5, 2.56 µM (inactive); in the assay with SK-OV-3, 14.8 µM (inactive); in the assay with SK-MEL-2, 4.86 µM (inactive). For the same compound, the GI50 with IGROV-1 is 17.9 µM (inactive); in the assay with OVCAR-5, 18.5 µM (inactive); with OVCAR-3 it was 2.54 µM (inactive).

In the case of `COc1cc([C@H]2c3cc4c(cc3[C@H](NCc3ccc(F)cc3)C3COC(=O)[C@H]32)OCO4)cc(OC)c1O` (stereo partly specified), the GI50 with U-251 was 1.09 µM (active); in the assay with TK-10 it was 15.4 µM (inactive); in the assay with Malme-3M it was 3.79 µM (inactive); in the assay on UACC-257 it was 14.8 µM (inactive); in the assay on 786-0, 1.84 µM (inactive); in the assay with COLO 205 it was 13.6 µM (inactive). Besides, the GI50 in the assay on HCT-15 is 2.29 µM; in the assay on NCI-H23 it was 2.22 µM (inactive); in the assay with ACHN, 1.13 µM (inactive); in the assay on OVCAR-4, 37.6 µM (inactive); with SK-OV-3, 2.87 µM (inactive); with SK-MEL-2, 15.6 µM (inactive). Further, the GI50 in the assay with IGROV-1 is 1.44 µM (inactive); with OVCAR-5 it was 8.91 µM (inactive); in the assay with OVCAR-3 it was 11.1 µM (inactive).

On to `O=C1c2ccccc2C(=O)C1(Cl)C1(S(=O)(=O)O)c2ccccc2-c2ccccc21`, for which the GI50 in the assay with U-251, in the assay on TK-10, with Malme-3M, in the assay on UACC-257, in the assay with 786-0 and in the assay on COLO 205 was > 100 µM (inactive) throughout. Further, the GI50 with HCT-15 is over 100 µM; with NCI-H23, > 100 µM (inactive); in the assay on ACHN, > 100 µM (inactive); in the assay with OVCAR-4 it was > 100 µM (inactive); in the assay with SK-MEL-5, > 100 µM (inactive); in the assay on SK-OV-3, > 100 µM (inactive). The GI50 with IGROV-1, in the assay on OVCAR-5 and with OVCAR-3 was > 100 µM (inactive) throughout.

As to `CC(=O)c1ccc(NC(=O)C(=O)C(C(=O)c2ccc(Cl)c(Cl)c2)C2OC(=O)c3ccccc32)cc1` (stereo unspecified), the GI50 in the assay on U-251 was 10.1 µM (inactive); in the assay on TK-10, 31.4 µM (inactive); in the assay with Malme-3M, 5.97 µM (inactive); in the assay on UACC-257, 23.4 µM (inactive); with 786-0, 16.1 µM (inactive); in the assay on COLO 205, 15.1 µM (inactive). Also, the GI50 in the assay with HCT-15 was 16.8 µM; in the assay with NCI-H23, 13.6 µM (inactive); in the assay on ACHN, 20.5 µM (inactive); in the assay with OVCAR-4, 26.5 µM (inactive); with SK-OV-3, 59.8 µM (inactive); with IGROV-1, 29.7 µM (inactive). For the same compound, the figures for the GI50 in the assay on OVCAR-5 and in the assay with OVCAR-3 were 21.5 µM (inactive) and 16.9 µM (inactive), respectively.

On to `Cc1c2n(c(=O)[nH]c1=O)C1OC(CO)C(O2)C1N=[N+]=[N-]` (stereo unspecified), for which the GI50 with U-251 was > 100 µM (inactive); with TK-10, > 100 µM (inactive); in the assay on UACC-257, > 100 µM (inactive); in the assay with 786-0, > 100 µM (inactive); in the assay with COLO 205, > 100 µM (inactive); with HCT-15 it was over 100 µM. Also, the GI50 in the assay with NCI-H23, in the assay on ACHN, in the assay on OVCAR-4, in the assay on SK-MEL-5, in the assay on SK-OV-3 and in the assay on SK-MEL-2 was > 100 µM (inactive) throughout. The GI50 in the assay with IGROV-1 and in the assay with OVCAR-3 was > 100 µM (inactive) throughout.

For `Cc1cnc2c(C)ccc([N+](=O)[O-])c2c1NCCCN(C)C`, the GI50 with U-251 was > 100 µM (inactive); in the assay on TK-10, > 100 µM (inactive); with Malme-3M, 73.6 µM (inactive); with UACC-257, > 100 µM (inactive); in the assay with 786-0, > 100 µM (inactive); in the assay with COLO 205, > 100 µM (inactive). The GI50 with HCT-15 is over 100 µM; in the assay with NCI-H23, 31.5 µM (inactive); with ACHN, > 100 µM (inactive); in the assay on OVCAR-4, > 100 µM (inactive); in the assay with SK-OV-3, 75.3 µM (inactive); in the assay with SK-MEL-2 it was > 100 µM (inactive). The GI50 in the assay on IGROV-1, in the assay with OVCAR-5 and in the assay with OVCAR-3 was > 100 µM (inactive) each time.

Take `CCCCCCCCOCC(COC(=O)CCCCCCC)OC(=O)CCCCCCC` (stereo unspecified): the GI50 in the assay on U-251, in the assay on TK-10, in the assay with Malme-3M, in the assay on UACC-257, with 786-0 and in the assay with COLO 205 was > 100 µM (inactive) each time. Moreover, the GI50 in the assay with HCT-15 was over 100 µM; in the assay on NCI-H23, > 100 µM (inactive); in the assay with ACHN it was > 100 µM (inactive); with OVCAR-4, > 100 µM (inactive); in the assay with SK-MEL-5 it was > 100 µM (inactive); in the assay on SK-OV-3, > 100 µM (inactive). Also, the GI50 in the assay on IGROV-1, in the assay on OVCAR-5 and in the assay with OVCAR-3 was > 100 µM (inactive) in each case.

In the case of `O=[N+]([O-])c1ccc(Sc2c3ccccc3nc3ccccc23)cc1`, the GI50 in the assay with U-251 is > 100 µM (inactive); in the assay with Malme-3M it was > 100 µM (inactive); in the assay with UACC-257 it was > 100 µM (inactive); in the assay on 786-0, > 100 µM (inactive); in the assay on COLO 205, > 100 µM (inactive); in the assay on HCT-15, over 100 µM. The GI50 in the assay on NCI-H23, in the assay with ACHN, in the assay on OVCAR-4, in the assay on SK-MEL-5, with SK-MEL-2 and with IGROV-1 was > 100 µM (inactive) in each case. Besides, the GI50 in the assay with OVCAR-5 and with OVCAR-3 was > 100 µM (inactive) each time.

With `O=C1/C(=C/c2ccccc2)CN(C(=O)C(F)(F)F)C/C1=C\c1ccccc1`, the GI50 with U-251 is 1.57 µM (inactive); with TK-10, 3.61 µM (inactive); in the assay on Malme-3M, 3.72 µM (inactive); in the assay on UACC-257, 1.66 µM (inactive); in the assay with 786-0, 1.68 µM (inactive); with COLO 205, 2.42 µM (inactive). Besides, the GI50 with HCT-15 is 2.03 µM; in the assay with NCI-H23, 1.83 µM (inactive); in the assay with ACHN it was 2.24 µM (inactive); in the assay on OVCAR-4, 2.44 µM (inactive); in the assay with SK-MEL-5, 1.71 µM (inactive); in the assay on SK-MEL-2 it was 7.98 µM (inactive). Moreover, the GI50 is 2.29 µM (inactive) in the assay on IGROV-1, 3.46 µM (inactive) in the assay on OVCAR-5 and 3.25 µM (inactive) with OVCAR-3.

These data come from ChEMBL document CHEMBL1201862, “PubChem BioAssay data set” (2004).
